Results as given in patent US6794365B2, “Malonic acid derivatives, processes for their preparation their use and pharmaceutical compositions containing them” (Aventis Pharma Deutschland GmbH, priority 2000, dated 2004).
Where a name gives a salt, the structure may show the parent alone.

molecular target: factor Xa (Homo sapiens, UniProt P00742); assay: In vitro Factor Xa assay (Test 1a), chromogenic substrate S-2765; assay type: biochemical; design: purchased Enzyme Research Laboratories, Inc; South Bend, Ind; conditions: Factor Xa inhibitory activity; Ki from IC50 corrected for substrate competition; 25° C., pH 7.8; read-out: Ki (FXa)
Sequence (P00742 235-488 limits assumed): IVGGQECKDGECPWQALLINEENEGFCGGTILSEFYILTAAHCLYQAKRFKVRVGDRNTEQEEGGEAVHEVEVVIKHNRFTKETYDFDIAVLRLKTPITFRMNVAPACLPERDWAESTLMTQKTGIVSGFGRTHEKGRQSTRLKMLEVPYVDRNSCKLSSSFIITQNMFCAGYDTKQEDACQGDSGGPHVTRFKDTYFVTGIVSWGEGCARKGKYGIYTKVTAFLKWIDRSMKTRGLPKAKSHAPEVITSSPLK
Sequence (P00742 41-179 partner limits assumed): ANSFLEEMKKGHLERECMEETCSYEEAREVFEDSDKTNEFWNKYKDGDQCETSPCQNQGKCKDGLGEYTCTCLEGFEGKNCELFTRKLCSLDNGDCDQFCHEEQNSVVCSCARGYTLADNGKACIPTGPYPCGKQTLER
Protocol: Purified enzymes are used in chromogenic assays. To determine the inhibition constant, the IC50 value is corrected for competition with substrate using the formula: […] where Km is the Michaelis-Menten-constant (Y.-C. Chen and W. H. Prusoff, Biochem. Pharmacol. 22: […] (1973), which is incorporated herein by reference). TBS-PEG buffer (50 mM Tris-Cl, pH 7.8, 200 mM NaCl, 0.05% (w/v) PEG-8000, 0.02% (w/v) NaN3) is used for this assay. The IC50 is determined by combining in appropriate wells of a Costar half-area microtiter plate 25 μl human factor Xa (Enzyme Research Laboratories, Inc.; South Bend, Ind.) in TBS-PEG; 40 μl 10% (v/v) DMSO in TBS-PEG (uninhibited control) or various concentrations of the compound to be tested diluted in 10% (v/v) DMSO in TBS-PEG; and substrate S-2765 (N-benzyloxycarbonyl-[…]-nitroanilide; Kabi Pharmacia, Inc.; Franklin Ohio) in TBS-PEG. […] The initial velocity of chromogenic substrate hydrolysis is measured by the change in absorbance at 405 nm using a Bio-tek Instruments kinetic plate reader ([…] 25° C. during the linear portion of the time course (usually 1.5 min after addition of substrate).

| Compound | Ki [nM] |
| --- | --- |
| CN(C)C(=O)C(Cc1ccc(C(=N)NO)cc1)C(=O)N[C@H](C(=O)N[C@@H](CCCNC(=N)N)C(N)=O)C1CCCCC1 (single isomer, unassigned; less polar) [Example 3] | 156 |
| C=CCOC(=O)[C@H](CCCNC(=N)N)NC(=O)[C@@H](NC(=O)C(Cc1ccc(C(=N)N)cc1)C(=O)N(C)Cc1ccccc1)C1CCCCC1 (single isomer, unassigned; less polar) [Example 6] | 1 |
| CC(C)C[C@H](NC(=O)[C@H](CCCNC(=N)N)NC(=O)[C@@H](NC(=O)C(Cc1ccc(N)cc1)C(=O)N(C(C)C)C(C)C)C1CCCCC1)C(=O)N1CCC[C@H]1C(N)=O (single isomer, unassigned; less polar) [Example 97] | 40 |
| CCOC(=O)[C@H](CCCNC(=N)N)NC(=O)[C@@H](NC(=O)C(Cc1ccc(C(=N)N)cc1)C(=O)NCc1ccccc1)C1CCCCC1 (single isomer, unassigned; less polar) [Example 136] | 10 |
| N=C(N)NCCC[C@H](NC(=O)[C@@H](NC(=O)C(Cc1ccc(C(=N)N)cc1)C(=O)NCc1ccccc1)C1CCCCC1)C(N)=O (single isomer, unassigned; more polar) [Example 8] | 35.1 |
| CC(C)C[C@H](NC(=O)[C@H](Cc1ccc[n+](C)c1)NC(=O)[C@@H](NC(=O)C(Cc1ccc(C(=N)N)cc1)C(=O)N(C(C)C)C(C)C)C1CCCCC1)C(=O)N1CCC[C@H]1C(N)=O (single isomer, unassigned; more polar) [Example 94] | 1700 |
| CN(C)C(=O)C(Cc1ccc(C(=N)N)cc1)C(=O)N[C@H](C(=O)N(CC(N)=O)Cc1ccncc1)C1CCCCC1 (single isomer, unassigned; more polar) [Example 104] | 6500 |
| N=C(N)NCCC[C@H](NC(=O)[C@@H](NC(=O)C(Cc1ccc(C(=N)NO)cc1)C(=O)NCc1ccccc1)C1CCCCC1)C(N)=O (single isomer, unassigned; more polar) [Example 129] | 360 |
| CN(C)C(=O)C(Cc1ccc(C(=N)N)cc1)C(=O)N1Cc2ccccc2C[C@H]1C(=O)N[C@@H](CCCNC(=N)N)C(N)=O (stereo partly drawn) [Example 10, 2-[3-(4-Carbamimidoyl-phenyl)-2-dimethylcarbamoyl-propionyl]-1,2,3,4-tetrahydro-isoquinoline-3-(S)-carboxylic acid (1-(S)-carbamoyl-4-guanidino-butyl)-amide trifluoroacetic acid salt] | 604 |
| N=C(N)NCCC[C@H](NC(=O)[C@@H](NC(=O)C(Cc1ccc(C(=N)NO)cc1)C(=O)NCc1ccccc1)C1CCCCC1)C(N)=O (stereo partly drawn) [Example 14, N-Benzyl-N′-[(S)-(1-(S)-carbamoyl-4-guanidino-butylcarbamoyl)-cyclohexyl-methyl]-2-[4-(N-hydroxycarbamimidoyl)-benzyl]-malonamide trifluoroacetic acid salt] | 21.8 |
| C=CCNC(=O)C(Cc1ccc(C(=N)N)cc1)C(=O)N[C@@H](Cc1ccc(N)cc1)C(=O)N[C@@H](CCCNC(=N)N)C(N)=O (stereo partly drawn) [Example 17, N-Allyl-N′-[2-(4-amino-phenyl)-1-(S)-(1-(S)-carbamoyl-4-guanidino-butylcarbamoyl)-ethyl]-2-(4-carbamimidoyl-benzyl)-malonamide trifluoroacetic acid salt] | 2290 |
| CCC(C)[C@@H](C(=O)N[C@@H](CCCNC(=N)N)C(N)=O)N(C)C(=O)C(Cc1ccc(C(=N)N)cc1)C(=O)Nc1ccccc1 (stereo partly drawn) [Example 21, 2-(4-Carbamimidoyl-benzyl)-N-[1-(S)-(1-(S)-carbamoyl-4-guanidino-butylcarbamoyl)-2-methyl-butyl]-N-methyl-N′-phenyl-malonamide trifluoroacetic acid salt] | 8370 |
| CCCC[C@H](NC(=O)C(Cc1ccc(C(=N)N)cc1)C(=O)NC)C(=O)N[C@@H](CCCNC(=N)N)C(N)=O (stereo partly drawn) [Example 28, 2-(4-Carbamimidoyl-benzyl)-N-[1-(S)-(1-(S)-carbamoyl-4-guanidino-butylcarbamoyl)-pentyl]-N′-methyl-malonamide trifluoroacetic acid salt] | 47 |
